Measured values taken from publication PMC6009886, “Methanethiosulfonate derivatives as ligands of the STAT3-SH2 domain” (Journal of Enzyme Inhibition and Medicinal Chemistry, 2017).
Counter-ions that a name gives are not always drawn. Marks after values point to notes of the source that are not given here.

Tests used:
STAT3-SH2 domain = biological target: T1, STAT3-SH2 domain (Homo sapiens, UniProt P40763); experiment: AlphaScreen-based assay, STAT3-SH2 domain / pTyr peptide binding; details: for inhibition at 30 µM: a = mean of two experiments; for IC50: read-out: STAT3 IC50 (μM) ± SD
T1 construct: First, 75 nM of each SH2-containing protein was incubated with the test compound for 15 min
T1 sequence (P40763 whole entry, the tested form may be a part): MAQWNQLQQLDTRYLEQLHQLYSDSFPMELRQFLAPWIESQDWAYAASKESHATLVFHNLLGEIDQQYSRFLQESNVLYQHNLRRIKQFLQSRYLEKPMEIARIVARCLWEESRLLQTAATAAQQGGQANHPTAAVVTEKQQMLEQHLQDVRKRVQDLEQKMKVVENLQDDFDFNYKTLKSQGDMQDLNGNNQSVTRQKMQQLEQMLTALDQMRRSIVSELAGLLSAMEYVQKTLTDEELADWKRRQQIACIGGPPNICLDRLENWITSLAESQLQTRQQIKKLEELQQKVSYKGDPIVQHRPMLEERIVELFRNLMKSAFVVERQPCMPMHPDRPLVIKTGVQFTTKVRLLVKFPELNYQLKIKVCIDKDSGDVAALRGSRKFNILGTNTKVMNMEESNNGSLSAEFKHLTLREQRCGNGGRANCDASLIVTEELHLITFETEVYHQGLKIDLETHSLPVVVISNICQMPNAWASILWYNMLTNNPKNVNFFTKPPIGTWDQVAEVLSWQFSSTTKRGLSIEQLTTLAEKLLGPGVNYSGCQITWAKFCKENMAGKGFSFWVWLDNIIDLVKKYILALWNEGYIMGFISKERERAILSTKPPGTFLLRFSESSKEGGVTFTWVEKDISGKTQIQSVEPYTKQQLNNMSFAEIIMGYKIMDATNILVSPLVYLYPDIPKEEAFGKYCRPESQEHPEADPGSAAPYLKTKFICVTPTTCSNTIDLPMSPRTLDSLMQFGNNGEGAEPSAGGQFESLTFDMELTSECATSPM

STAT1 = biological target: T2, STAT1 (Homo sapiens, UniProt P42224); experiment: AlphaScreen-based assay, selectivity versus STAT1; type: binding; details: for IC50: read-out: STAT1 IC50 (μM) ± SD
T2 construct: First, 75 nM of each SH2-containing protein was incubated with the test compound for 15 min
T2 sequence (P42224 1-750): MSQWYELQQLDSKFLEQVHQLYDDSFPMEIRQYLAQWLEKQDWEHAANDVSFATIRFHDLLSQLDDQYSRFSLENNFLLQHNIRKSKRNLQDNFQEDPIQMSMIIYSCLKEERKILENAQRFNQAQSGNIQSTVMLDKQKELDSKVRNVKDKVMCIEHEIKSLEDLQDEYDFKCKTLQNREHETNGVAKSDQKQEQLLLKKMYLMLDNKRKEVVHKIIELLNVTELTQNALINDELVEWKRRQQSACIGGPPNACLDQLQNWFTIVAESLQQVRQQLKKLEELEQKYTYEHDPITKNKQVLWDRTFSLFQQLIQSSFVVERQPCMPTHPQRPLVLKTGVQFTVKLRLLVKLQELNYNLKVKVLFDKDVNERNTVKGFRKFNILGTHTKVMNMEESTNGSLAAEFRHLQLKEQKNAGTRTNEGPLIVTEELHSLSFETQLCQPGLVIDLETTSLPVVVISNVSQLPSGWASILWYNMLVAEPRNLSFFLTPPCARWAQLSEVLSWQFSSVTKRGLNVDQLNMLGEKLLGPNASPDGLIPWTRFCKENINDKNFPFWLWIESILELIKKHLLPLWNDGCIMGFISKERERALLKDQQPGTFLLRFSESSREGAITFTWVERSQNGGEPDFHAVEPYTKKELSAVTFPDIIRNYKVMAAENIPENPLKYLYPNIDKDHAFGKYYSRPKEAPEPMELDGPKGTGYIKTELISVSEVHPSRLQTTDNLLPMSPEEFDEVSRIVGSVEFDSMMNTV
Description: (§1) STAT3 inhibitory activity of the described compounds was tested by the AlphaScreen-based assay to evaluate the potential inhibition of the interaction between STAT3-SH2 domain and pTyr-containing peptides according to the previously reported procedure. For the most interesting compounds, selectivity tests versus STAT1 and Grb2 (Growth factor receptor-bound protein 2) were performed. AlphaScreen is a bead-based nonradioactive assay system for detecting biomolecular interactions in a microtiter plate format. Binding of biological partners brings donor and acceptor beads into close proximity and as result, a luminescent signal between 520 and 620 nm is produced. The AlphaScreen-based assays were typically performed in a final reaction volume of 25 μl of the assay buffer containing 10 mM HEPES–NaOH (pH 7.4), 50 mM NaCl, 1 mM EDTA (pH 8.0), 0.1% NP-40, and 10 ng/μl BSA in a 96-well microtiter plate at 25 °C. Phospho-Tyr (pTyr) peptide probes used in this study were 5-carboxyfluorescein (FITC)-GpYLPQTV for STAT3, FITC-GpYDKPHVL for STAT1, and FITC-PSpYVNVQN for Grb2. First, 75 nM of each SH2-containing protein was incubated with the test compound for 15 min. Each protein sample was then incubated for 90 min with 50 nM of its corresponding FITC-pTyr peptide, and mixed with streptavidin-coated donor beads and anti-FITC acceptor beads simultaneously before detection at 570 nm using EnVisonXcite (Perkin Elmer, Waltham, MA).

[1] = test system: T3, Grb2 (Growth factor receptor-bound protein 2); experiment: AlphaScreen-based assay, selectivity versus Grb2; type: binding; details: a = mean of two experiments
T3 construct: First, 75 nM of each SH2-containing protein was incubated with the test compound for 15 min
Description: as §1

HCT-116 cell line = experiment: MTT assay, cytotoxicity on HCT-116 cell line; type: cell-based, human; details: for antiproliferative / cytotoxic activity on HCT-116 cell line (in words): 48 h treatment; for IC50: Homo sapiens, HCT-116, 48 h treatment, NA: not active up to 200 μM, read-out: HCT-116 IC50 (μM) ± SD
Description: The colorectal cancer HCT116 cells were cultured in McCoy’s media supplemented with penicillin (10,000 U/ml), streptomycin (10 mg/ml), nonessential amino acid, and 10% fetal calf serum (FCS). Cells were then seeded in 48 well plates and, after 24 h, they were incubated with different concentration of newly synthesized compounds dissolved in DMSO.
After 48 h of treatment, medium was removed from each well, and cells were incubated with fresh medium, containing 10% (v/v) of MTT (3-(4,5-dimethyl-2-thiazolyl)-2,5-diphenyl-2H-tetrazolium bromide) reagent. MTT, by interacting with vital cells mitochondria, is converted to formazan, with the development of visible purple crystals. After dissolving these crystals with isopropanol-HCl, the quantification of the conversion of MTT to formazan is determined through spectrophotometer analysis (595 nM), as previously described.

STAT3 homodimers = test system: STAT3 homodimers; set-up: method as in PMID 17463090; details: read-out: IC50, blocked the formation of STAT3 homodimers; cited from earlier work

Row | SMILES | inhibition at 30 µM (STAT3-SH2 domain) [%] | IC50 (STAT3-SH2 domain) [µM] | inhibition at 30 µM (STAT1) [%] | IC50 (STAT1) [µM] | inhibition at 3 µM (STAT3-SH2 domain) [%] | inhibition at 3 µM (STAT1) [%] | Grb2 % Inhibition 3 μM [1] | inhibition / binding of STAT3-SH2 domain (in words) (STAT3-SH2 domain; highest concentration tested 30 μM) | antiproliferative / cytotoxic activity on HCT-116 cell line (in words) (HCT-116 cell line) | IC50 (HCT-116 cell line) [µM] | IC50 (STAT3 homodimers) [µM]
1 | CC(=O)Oc1ccccc1C(=O)O [ASA, acetyl salicylic acid, reference compound] | 3.8 ± 1.9 | > 30 | 6.3 ± 1.7 | > 30 | – | – | – | – | – | – | –
2 | CC1=C(CC(=O)OCCSS(C)(=O)=O)c2cc(F)ccc2/C1=C\c1ccc([S+](C)[O-])cc1 (centres unmarked) [Compound 3, (Z)-5-fluoro-2-methyl-1-[[4-(methylsulfinyl)phenyl]methylene]-1H-indene-3-acetic acid 2-methanesulfonylsulfanylethyl ester] | 102 | 0.5 ± 0.1 | – | > 3 | 105 ± 8.2 | 46.7 ± 1.1 | 74.6^a % | – | moderate antiproliferative activity | 104 ± 10.9 | –
3 | CC(=O)Oc1ccccc1C(=O)OCCSS(C)(=O)=O [Compound 4, 2-Acetoxybenzoic acid 2-methanesulfonylsulfanyl-ethyl ester] | 100 ± 0.1 | 1.4 ± 0.1 | 99.8 ± 0.4 | 3.6 | 93.5 ± 2.6 | 44.2 ± 0.8 | 15.9^a % | – | moderate antiproliferative activity | 87.9 ± 11.4 | –
4 | CS(=O)(=O)SCCOC(=O)Cc1ccccc1Nc1c(Cl)cccc1Cl [Compound 5, 2-((methylsulfonyl)thio)ethyl 2-(2-((2,6-dichlorophenyl)amino)phenyl)acetate] | 102 | 0.5 ± 0.2 | – | > 3 | 110 ± 2.2 | 35.4 ± 2.1 | 77.8^a % | – | inefficacious at concentration up to 100–200 μM | – | –
5 | Cc1ccc(S(=O)(=O)SCC(=O)Nc2ccc(C(=O)O)c(O)c2)cc1 [Compound 6, 2-Hydroxy-4-(2-(tosylthio)acetamido)benzoic acid] | 58.4 ± 1.1 | 4.9 ± 0.4 | 39.6 ± 0.8 | > 30 | 46 ± 0.8 | 18 ± 0.2 | – | – | – | > 200 | –
6 | CS(=O)(=O)CSC(=O)c1ccc(N)cc1O [Compound 8, S-((methylsulfonyl)methyl) 4-amino-2-hydroxybenzothioate] | 41.8 ± 0.9 | > 30 | – | – | – | – | – | moderately inhibited | good cytotoxic activity | 26.3 ± 11.6 | –
7 | CS(=O)(=O)SCCN [Compound 10, S-(2-aminoethyl) methanesulfonothioate, reference compound] | – | > 3 | – | > 3 | – | – | 12.3^a % | – | – | – | –
8 | Cc1ccc(S(=O)(=O)OCC(=O)Nc2ccc(C(=O)O)c(O)c2)cc1 [Compound S3I-301, reference compound] | 7.2 ± 1.7 | – | – | – | – | – | – | – | – | 39.5 ± 7.7 | 86
9 | O=C(O)Cc1ccccc1Nc1c(Cl)cccc1Cl [Diclofenac sodium salt, reference compound] | 4.5 ± 2.4 | > 30 | 6.5 ± 2.1 | > 30 | – | – | – | – | – | – | –
10 | CC1=C(CC(=O)O)c2cc(F)ccc2/C1=C\c1ccc([S+](C)[O-])cc1 (centres unmarked) [Sulindac, sulindac, reference compound] | 4.2 ± 3.2 | > 30 | 4.9 ± 2 | > 30 | – | – | – | – | – | – | –

Now from value to compound, other results behind:

Row | inhibition at 30 µM (STAT3-SH2 domain) [%] | IC50 (STAT3-SH2 domain) [µM] | inhibition at 30 µM (STAT1) [%] | IC50 (STAT1) [µM] | inhibition at 3 µM (STAT3-SH2 domain) [%] | inhibition at 3 µM (STAT1) [%] | Grb2 % Inhibition 3 μM [1] | inhibition / binding of STAT3-SH2 domain (in words) (STAT3-SH2 domain; highest concentration tested 30 μM) | SMILES | antiproliferative / cytotoxic activity on HCT-116 cell line (in words) (HCT-116 cell line) | IC50 (HCT-116 cell line) [µM] | IC50 (STAT3 homodimers) [µM]
11 | 102 | 0.7 ± 0.1 | – | > 3 | 101 ± 2.2 | 44.9 ± 10.5 | 76.0^a % | – | CCCC(CCC)C(=O)OCCSS(C)(=O)=O [Compound 1, 2-((Methylsulfonyl)thio)ethyl 2-propylpentanoate] | moderate antiproliferative activity | 136 ± 2.2 | –
12 | 106 | 1.4 ± 0.1 | – | > 3 | 67.2 ± 11 | 1.9 ± 2.2 | −23.3^a % | – | CCCC(CCC)C(=O)NCCSS(C)(=O)=O [Compound 2, S-(2-(2-propylpentanamido)ethyl) methanesulfonothioate] | inefficacious at concentration up to 100–200 μM | – | –
13 | – | > 30 | – | – | – | – | – | – | CS(=O)(=O)SCCO [Compound 9, S-(2-hydroxyethyl) methanesulfonothioate, reference compound] | – | – | –
14 | 0.2 ± 3.2 | > 30 | 2.7 ± 3 | > 30 | – | – | – | – | CCCC(CCC)C(=O)O [VA, valproic acid, reference compound] | – | – | –
